# PMC7018746, “An efficient and targeted synthetic approach towards new highly substituted 6-amino-pyrazolo[1,5-a]pyrimidines with α-glucosidase inhibitory activity” (Scientific Reports, 2020)
# Read-outs that look alike come from different tables or passages of the source.
# How the values were obtained:
# [1] = biological target: T1, α-glucosidase (Saccharomyces cerevisiae, EC.3.2.1.20) (Saccharomyces cerevisiae, UniProt P53341); assay: biochemical; format: biochemical; conditions: for IC50: mean ± SD, at least three experiments, read-out: IC50 (µM), in vitro α-glucosidase inhibitory activity
# T1 construct: purchased Sigma-Aldrich
# T1 sequence (P53341 whole entry): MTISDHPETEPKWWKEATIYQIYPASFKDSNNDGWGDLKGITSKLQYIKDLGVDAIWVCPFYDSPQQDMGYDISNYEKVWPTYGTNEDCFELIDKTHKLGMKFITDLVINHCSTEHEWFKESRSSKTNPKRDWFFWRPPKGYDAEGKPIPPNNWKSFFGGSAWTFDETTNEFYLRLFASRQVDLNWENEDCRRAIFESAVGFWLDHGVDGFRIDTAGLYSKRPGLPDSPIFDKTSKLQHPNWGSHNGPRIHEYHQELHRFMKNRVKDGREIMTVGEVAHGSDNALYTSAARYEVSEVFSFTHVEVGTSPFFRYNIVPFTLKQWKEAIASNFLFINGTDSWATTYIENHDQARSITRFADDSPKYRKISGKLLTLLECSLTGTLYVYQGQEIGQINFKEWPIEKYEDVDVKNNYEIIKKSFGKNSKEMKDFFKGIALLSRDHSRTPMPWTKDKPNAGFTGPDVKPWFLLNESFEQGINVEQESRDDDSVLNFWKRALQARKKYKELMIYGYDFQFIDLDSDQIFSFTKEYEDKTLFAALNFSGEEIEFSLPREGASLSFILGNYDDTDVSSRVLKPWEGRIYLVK
# Procedure: α-Glucosidase enzyme (EC3.2.1.20, Saccharomyces cerevisiae, 20 U/mg) and substrate (p-nitrophenyl glucopyranoside) were purchased from Sigma-Aldrich. […] Finally, the change in absorbance was measured at 405 nm by using spectrophotometer (Gen5, Power wave xs2, BioTek, America). DMSO (10% final concentration) and acarbose were used respectively as control and standard drug. The percentage of enzyme inhibitionwas calculated and IC50 values were obtained from non-linear regression curve using the Logit method.
# [2] = biological target: T2, α-glucosidase (Saccharomyces cerevisiae, UniProt P53341); assay: Enzyme kinetic studies (Lineweaver-Burk and secondary plots); format: biochemical; conditions: for inhibition type: Lineweaver-Burk plot: Km increased, Vmax unchanged; for Ki: estimated from plot of Km versus inhibitor concentration, read-out: inhibition constant, Ki
# T2 construct: purchased Sigma-Aldrich
# T2 sequence (P53341 whole entry): as above
# Procedure: The inhibition mode of the synthesized compounds 3 against α-glucosidase was investigated. […]. The inhibition type was indicated on the basis of Michaelis-Menten and Lineweaver-Burk plots. […] […]. The […] of enzyme solution (1 U/mL) was incubated with different concentrations (0, 5, 10, and 15 µM) of selected compounds for 15 min at 30 °C. The reaction was then started by adding different concentrations of substrate (p-nitrophenyl glucopyranoside, 1-10 mM), and change in absorbance was measured for 20 min at 405 nm by using spectrophotometer (Gen5, Power wave xs2, BioTek, America).
# [3] = Cytotoxicity studies, MDA-MB-231; format: cell-based; conditions: human, MDA-MB-231 breast cancer cells
# Procedure: (§1) The cytotoxicity of some of potent compounds including 3d, 3m, 3v, and 3af was evaluated through use of the breast cancer cell line MDA-MB-231 and human pancreatic cancer cell line PANC-1.
# [4] = test system: breast cancer cell line MDA-MB-231; assay: Cytotoxicity studies, MDA-MB-231; format: cell-based; conditions: MDA-MB-231, at concentration of 100 µM
# Procedure: as §1
# [5] = Cytotoxicity studies, PANC-1; format: cell-based, human; conditions: human, PANC-1 pancreatic cancer cells
# Procedure: as §1
# [6] = test system: human pancreatic cancer cell line PANC-1; assay: Cytotoxicity studies, PANC-1; format: cell-based; conditions: PANC-1, at concentration of 100 µM
# Procedure: as §1
Compound,"IC50 ([1]; Table 1, compounds 3a-z) [µM]",fold more potent than acarbose ([1]; ratio of α-glucosidase IC50 values vs acarbose),inhibition type [2],Ki [2] [µM],IC50 [3] [µM],cytotoxic activity [4],IC50 [5] [µM],cytotoxic activity [6],melting point [°C],"IC50 ([1]; Table 2, compounds 3aa-ai) [µM]"
"Cc1ccc(-c2nc3c(C(=O)Nc4ccccc4)c(Nc4ccccc4)nn3c(-c3ccc(Br)cc3)c2N)cc1 [3d, 6-Amino-7-(4-bromophenyl)-N-phenyl-2-(phenylamino)-5-p-tolylpyrazolo[1,5-a]pyrimidine-3-carboxamide]",15.2 ± 0.4,around 50 fold,competitive inhibition,12,> 200,did not possess any cytotoxic activity,> 200,did not possess any cytotoxic activity,–,–
"COc1ccc(NC(=O)c2c(Nc3ccccc3)nn3c(-c4ccc(Br)cc4)c(N)c(-c4ccc(C)cc4)nc23)cc1 [3m, 6-Amino-7-(4-bromophenyl)-N-(4-methoxyphenyl)-2-(phenylamino)-5-p-tolylpyrazolo[1,5-a]pyrimidine-3-carboxamide]",24.7 ± 1.1,–,–,–,> 200,did not possess any cytotoxic activity,> 200,did not possess any cytotoxic activity,282 to 283,–
"CCOC(=O)c1c(-c2ccccc2)nn2c(-c3ccc(Cl)cc3)c(N)c(-c3ccc(OC)cc3)nc12 [3af, Ethyl 6-amino-7-(4-chlorophenyl)-5-(4-methoxyphenyl)-2-phenylpyrazolo[1,5-a]pyrimidine-3-carboxylate]",–,–,competitive inhibition,65,> 200,did not possess any cytotoxic activity,> 200,did not possess any cytotoxic activity,226 to 228,65.5 ± 3
"Nc1c(-c2ccccc2)nc2c(C(=O)Nc3ccc(Cl)cc3)c(Nc3ccccc3)nn2c1-c1ccc(Br)cc1 [3t, 6-Amino-7-(4-bromophenyl)-N-(4-chlorophenyl)-5-phenyl-2-(phenylamino)pyrazolo[1,5-a]pyrimidine-3-carboxamide]",60 ± 4,–,–,–,–,–,–,–,294 to 296,–
"CCOC(=O)c1c(-c2ccccc2)nn2c(-c3ccc(Cl)cc3)c(N)c(-c3ccc(Cl)cc3)nc12 [3ah, Ethyl 6-amino-5,7-bis(4-chlorophenyl)-2-phenylpyrazolo[1,5-a]pyrimidine-3-carboxylate]",–,–,–,–,–,–,–,–,245 to 246,162 ± 3.2
"COc1ccc(-c2nc3c(C(=O)Nc4ccccc4)c(Nc4ccccc4)nn3c(-c3ccc(Cl)cc3)c2N)cc1 [3f, 6-Amino-7-(4-chlorophenyl)-5-(4-methoxyphenyl)-N-phenyl-2-(phenylamino)pyrazolo[1,5-a]pyrimidine-3-carboxamide]",85.7 ± 5.3,–,–,–,–,–,–,–,237 to 238,–
"Cc1ccc(-c2nc3c(C(=O)Nc4ccc(Cl)cc4)c(Nc4ccccc4)nn3c(-c3ccc(Br)cc3)c2N)cc1 [3v, 6-Amino-7-(4-bromophenyl)-N-(4-chlorophenyl)-2-(phenylamino)-5-p-tolylpyrazolo[1,5-a]pyrimidine-3-carboxamide]",17.6 ± 0.6,–,–,–,> 200,did not possess any cytotoxic activity,> 200,did not possess any cytotoxic activity,271 to 273,–
"CCOC(=O)c1c(-c2ccccc2)nn2c(-c3ccc(Cl)cc3)c(N)c(-c3ccccc3)nc12 [3aa, Ethyl 6-amino-7-(4-chlorophenyl)-2,5-diphenylpyrazolo[1,5-a]pyrimidine-3-carboxylate]",–,–,–,–,–,–,–,–,180 to 182,94 ± 3.6
"Cc1ccc(-c2nc3c(C(=O)Nc4ccccc4)c(Nc4ccccc4)nn3c(-c3ccc(Cl)cc3)c2N)cc1 [3c, 6-Amino-7-(4-chlorophenyl)-N-phenyl-2-(phenylamino)-5-p-tolylpyrazolo[1,5-a]pyrimidine-3-carboxamide]",44.5 ± 3.1,–,–,–,–,–,–,–,232 to 233,–
"Nc1c(-c2ccccc2)nc2c(C(=O)Nc3ccccc3)c(Nc3ccccc3)nn2c1-c1ccc(Cl)cc1 [3a, 6-Amino-7-(4-chlorophenyl)-N,5-diphenyl-2-(phenylamino)pyrazolo[1,5-a]pyrimidine-3-carboxamide]",37.8 ± 2.5,–,–,–,–,–,–,–,248 to 249,–
"Nc1c(-c2ccc(Cl)cc2)nc2c(C(=O)Nc3ccc(Cl)cc3)c(Nc3ccccc3)nn2c1-c1ccccc1 [3x, 6-Amino-N,5-bis(4-chlorophenyl)-7-phenyl-2-(phenylamino)pyrazolo[1,5-a]pyrimidine-3-carboxamide]",80.3 ± 5.2,–,–,–,–,–,–,–,255 to 257,–
"COc1ccc(NC(=O)c2c(Nc3ccccc3)nn3c(-c4ccccc4)c(N)c(-c4ccc(OC)cc4)nc23)cc1 [3n, 6-Amino-N,5-bis(4-methoxyphenyl)-7-phenyl-2-(phenylamino)pyrazolo[1,5-a]pyrimidine-3-carboxamide]",42.6 ± 1.1,–,–,–,–,–,–,–,248 to 250,–
"CCOC(=O)c1c(-c2ccccc2)nn2c(-c3ccc(Br)cc3)c(N)c(-c3ccc(C)cc3)nc12 [3ad, Ethyl 6-amino-7-(4-bromophenyl)-2-phenyl-5-p-tolylpyrazolo[1,5-a]pyrimidine-3-carboxylate]",–,–,–,–,–,–,–,–,230 to 232,141 ± 7
